{"source": "patent US8633005B2", "about": "“Isocyclomaltooligosaccharide(s), isocyclomaltooligosaccharide-forming enzyme, their preparation and uses” (Hayashibara Co., Ltd., priority 2004, dated 2014)", "key": {"[1]": {"test": "Thermal stability of ICM (ICG5 aqueous solution heated at 120° C.)", "assay_type": "physicochemical", "settings": "for Degree of coloring / Purity: 5% (w/v) aqueous solution, 120° C.; for Purity: HPLC", "procedure": "(§1) ICG5, prepared from soluble starch by the method in Experiment 11 and purified to give a purity of 100% by the method in Experiment 1, was used as material. An aqueous ICG5 solution with a concentration of 5% (w/v) was prepared by dissolving ICG5 in deionized water. Then, 8 ml each of the resulting solution was pored into a glass tube, sealed closely, and then heated at 120° C. for 30 to 90 min. After cooling the solution, the degree of coloring of the solution was measured. Further, the purity of ICG5 in the solution was measured by HPLC. The degree of coloring was defined as an absorbance at 480 nm using a 1 cm-cell."}, "[2]": {"test": "pH stability of ICM (ICG5 in buffers pH 2 to 10 heated at 100° C. for 24 hours)", "assay_type": "physicochemical", "settings": "for Degree of coloring / Purity: 4% (w/v), 100° C. for 24 hours", "procedure": "as §1\nICG5, used in Experiment 15, was dissolved in various buffers to make into nine kinds of aqueous solutions containing 4% (w/v) of ICG5, adjusted to pH 2 to 10, as shown in Table 14. Eight milliliters of each solution was put in a glass tube, sealed and then heated at 100° C. for 24 hours. After cooling the solution, the degree of coloring and the purity of ICG5 of each solution were measured in the same manner in Experiment 15."}, "[3]": {"test": "Amino-carbonyl reaction with polypeptone", "assay_type": "physicochemical", "settings": "with 5% (w/v) polypeptone, 120° C., blank subtracted", "procedure": "ICG5 used in Experiment 15 and commercially available polypeptone, commercialized by Nihon Pharmaceutical Co., Ltd., Tokyo, Japan, were dissolved in deionized water to make into an aqueous solution containing […] and 5% (w/v) of polypeptone. As a control, an aqueous solution containing α-CD and polypeptone was prepared in the same manner using α-CD in place of ICG5. Four milliliters each of the solution was put in a glass tube, sealed and then heated at 120° C. for 30, 60, or 90 min. After cooling the solutions in ambient temperature, the degrees of coloring of the solutions were measured to estimate the degree of amino-carbonyl reaction. As a blank test, a solution containing polypeptone only was heated in the same manner. The degree of coloring was defined as an absorbance at 480 nm using a 1 cm-cell after subtracting the absorbance of the blank test."}, "[4]": {"test": "Clathrating action of ICM (amount of compound clathrated, gas-chromatography)", "assay_type": "physicochemical", "settings": "3-folds molar amount", "procedure": "ICG5 used in Experiment 15, was dissolved in deionized water to make into an aqueous solution containing 20% (w/v) of ICG5. Twenty milliliters of the aqueous solution was admixed with 3-folds amount, on a molar basis to ICG5, of either of four kinds of short chain alcohols, i.e., methanol, ethanol, propanol, and butanol; four kinds of short chain fatty acids, i.e., acetic acid, propionic acid, n-butyric acid, and n-valeic acid; and four kinds of aromatic compounds, i.e., benzyl alcohol, phenethyl alcohol, 4-phenyl-1-propanol, and o-cresol; and then stirred the mixture to homogeneity for allowing ICG5 to clathrate the compound. Successively, each solution was filtrated, and the resulting filtrate was freeze-dried to remove unclathrated compound. In order to measure the amount of compound clathrated in the freeze-dried product, the amount of each compound in each freeze-dried product was determined by gas-chromatography. Alpha-CD was used as a control and subjected to the similar test."}, "mice": {"system": "mice", "test": "Acute toxicity test, oral, mice", "assay_type": "in vivo", "text": "By using mice, ICG5 used in Experiment 15 was orally administrated to the mice for its acute toxicity test. […] Though not so accurate, the value of LD50 of ICG5 was 5 g/kg-mouse weight or higher."}, "[5]": {"test": "Reducing power by the Somogyi-Nelson method", "assay_type": "physicochemical", "text": "It was concluded that Saccharides I and II were substantially non-reducing saccharides."}, "salivary α-amylase": {"molecular_target": "T1, salivary α-amylase (Homo sapiens, UniProt P0DUB6)", "T1 sequence (P0DUB6 16-511)": "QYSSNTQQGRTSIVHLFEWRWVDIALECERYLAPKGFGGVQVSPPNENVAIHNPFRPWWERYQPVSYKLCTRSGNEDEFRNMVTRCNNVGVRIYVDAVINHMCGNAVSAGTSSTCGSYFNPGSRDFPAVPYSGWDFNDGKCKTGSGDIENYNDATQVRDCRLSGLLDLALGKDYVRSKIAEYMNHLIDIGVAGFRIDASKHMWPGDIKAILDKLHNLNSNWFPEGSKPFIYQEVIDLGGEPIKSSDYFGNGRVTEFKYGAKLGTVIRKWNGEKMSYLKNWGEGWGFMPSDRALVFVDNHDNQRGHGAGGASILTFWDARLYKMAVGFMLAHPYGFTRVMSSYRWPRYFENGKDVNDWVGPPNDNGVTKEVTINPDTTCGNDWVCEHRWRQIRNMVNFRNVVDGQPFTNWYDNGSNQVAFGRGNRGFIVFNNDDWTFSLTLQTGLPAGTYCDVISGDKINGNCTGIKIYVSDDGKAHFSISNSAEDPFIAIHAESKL", "source_text": "43, 23-29 (1990), the digestibility of ICM by salivary α-amylase, artificial gastric juice, pancreas amylase, and small intestinal enzymes were investigated using ICG5, used in Experiment 15. […] In Table 18, the digestion (%) means a value calculated by the formula: Digestion (%)=(The amount of reducing saccharides/The amount of the total saccharides)×100 , in respective reaction described above."}}}
{"smiles": "OCC1OC2OC3C(CO)OC(OC4C(CO)OC(OC5C(CO)OC(OCC6OC(OC1C(O)C2O)C(O)C(O)C6O)C(O)C5O)C(O)C4O)C(O)C3O", "note": "[ICG5, cyclo{→6)-α-D-glucopyranosyl-(1→4)-α-D-glucopyranosyl-(1→4)-α-D-glucopyranosyl-(1→4)-.α-D-glucopyranosyl-(1→4)α-D-glucopyranosyl-(1→}]", "values": [{"measurement": "Degree of coloring", "setting": "[1]; heating time 0 min", "value": 0.00, "unit": "A480 nm"}, {"measurement": "Purity", "setting": "[1]; heating time 0 min", "value": 100, "unit": "%"}, {"measurement": "Degree of coloring", "setting": "[1]; heating time 30 min", "value": 0.00, "unit": "A480 nm"}, {"measurement": "Purity", "setting": "[1]; heating time 30 min", "value": 100, "unit": "%"}, {"measurement": "Degree of coloring", "setting": "[1]; heating time 60 min", "value": 0.00, "unit": "A480 nm"}, {"measurement": "Purity", "setting": "[1]; heating time 60 min", "value": 100, "unit": "%"}, {"measurement": "Degree of coloring", "setting": "[1]; heating time 90 min", "value": 0.01, "unit": "A480 nm"}, {"measurement": "Purity", "setting": "[1]; heating time 90 min", "value": 100, "unit": "%"}, {"measurement": "Thermal stability", "setting": "[1]; aqueous solution heated to 120° C.", "value": "stable under the heating condition"}, {"measurement": "Hydrolysis", "setting": "[2]; pH 2, 100° C. for 24 hours", "value": "completely hydrolyzed"}, {"measurement": "Degree of coloring", "setting": "[2]; pH 2.0, Acetate buffer", "value": 0.00, "unit": "A480 nm"}, {"measurement": "Purity", "setting": "[2]; pH 2.0, Acetate buffer", "value": 0, "unit": "%"}, {"measurement": "Hydrolysis", "setting": "[2]; pH 3, 100° C. for 24 hours", "value": "≥ 50"}, {"measurement": "Degree of coloring", "setting": "[2]; pH 3.0, Acetate buffer", "value": 0.00, "unit": "A480 nm"}, {"measurement": "Purity", "setting": "[2]; pH 3.0, Acetate buffer", "value": 34.9, "unit": "%"}, {"measurement": "Hydrolysis", "setting": "[2]; pH 4, 100° C. for 24 hours", "value": "slightly hydrolyzed"}, {"measurement": "Degree of coloring", "setting": "[2]; pH 4.0, Acetate buffer", "value": 0.00, "unit": "A480 nm"}, {"measurement": "Purity", "setting": "[2]; pH 4.0, Acetate buffer", "value": 89.9, "unit": "%"}, {"measurement": "Degree of coloring", "setting": "[2]; pH 5.0, Acetate buffer", "value": 0.00, "unit": "A480 nm"}, {"measurement": "Purity", "setting": "[2]; pH 5.0, Acetate buffer", "value": 99.4, "unit": "%"}, {"measurement": "Degree of coloring", "setting": "[2]; pH 6.0, Acetate buffer", "value": 0.00, "unit": "A480 nm"}, {"measurement": "Purity", "setting": "[2]; pH 6.0, Acetate buffer", "value": 100, "unit": "%"}, {"measurement": "Degree of coloring", "setting": "[2]; pH 7.0, Borate buffer", "value": 0.00, "unit": "A480 nm"}, {"measurement": "Purity", "setting": "[2]; pH 7.0, Borate buffer", "value": 100, "unit": "%"}, {"measurement": "Degree of coloring", "setting": "[2]; pH 8.0, Ammonium buffer", "value": 0.00, "unit": "A480 nm"}, {"measurement": "Purity", "setting": "[2]; pH 8.0, Ammonium buffer", "value": 100, "unit": "%"}, {"measurement": "Degree of coloring", "setting": "[2]; pH 9.0, Ammonium buffer", "value": 0.01, "unit": "A480 nm"}, {"measurement": "Purity", "setting": "[2]; pH 9.0, Ammonium buffer", "value": 100, "unit": "%"}, {"measurement": "Degree of coloring", "setting": "[2]; pH 10.0, Ammonium buffer", "value": 0.01, "unit": "A480 nm"}, {"measurement": "Purity", "setting": "[2]; pH 10.0, Ammonium buffer", "value": 99.6, "unit": "%"}, {"measurement": "Hydrolysis", "setting": "[2]; pH range of 5 to 10, 100° C. for 24 hours", "value": "substantially not hydrolyzed"}, {"measurement": "Degree of coloring", "setting": "[3]; heating time 0 min", "value": 0.00, "unit": "A480 nm"}, {"measurement": "Degree of coloring", "setting": "[3]; heating time 30 min", "value": 0.02, "unit": "A480 nm"}, {"measurement": "Degree of coloring", "setting": "[3]; heating time 60 min", "value": 0.02, "unit": "A480 nm"}, {"measurement": "Degree of coloring", "setting": "[3]; heating time 90 min", "value": 0.02, "unit": "A480 nm"}, {"measurement": "Amount of compound clathrated", "setting": "[4]; objective compound: 4-Phenyl 1-propanol (aromatic compound)", "value": 225.2, "unit": "mg/g-freeze-dried product"}, {"measurement": "Amount of compound clathrated", "setting": "[4]; objective compound: Acetic acid (short chain fatty acid)", "value": 82.4, "unit": "mg/g-freeze-dried product"}, {"measurement": "Amount of compound clathrated", "setting": "[4]; objective compound: Benzyl alcohol (aromatic compound)", "value": 61.9, "unit": "mg/g-freeze-dried product"}, {"measurement": "Amount of compound clathrated", "setting": "[4]; objective compound: Butanol (short chain alcohol)", "value": 82.7, "unit": "mg/g-freeze-dried product"}, {"measurement": "Amount of compound clathrated", "setting": "[4]; objective compound: Ethanol (short chain alcohol)", "value": 57.6, "unit": "mg/g-freeze-dried product"}, {"measurement": "Amount of compound clathrated", "setting": "[4]; objective compound: Methanol (short chain alcohol)", "value": 33.5, "unit": "mg/g-freeze-dried product"}, {"measurement": "Amount of compound clathrated", "setting": "[4]; objective compound: Phenethyl alcohol (aromatic compound)", "value": 10.0, "unit": "mg/g-freeze-dried product"}, {"measurement": "Amount of compound clathrated", "setting": "[4]; objective compound: Propanol (short chain alcohol)", "value": 69.2, "unit": "mg/g-freeze-dried product"}, {"measurement": "Amount of compound clathrated", "setting": "[4]; objective compound: Propionic acid (short chain fatty acid)", "value": 91.4, "unit": "mg/g-freeze-dried product"}, {"measurement": "Amount of compound clathrated", "setting": "[4]; objective compound: n-Butyric acid (short chain fatty acid)", "value": 69.9, "unit": "mg/g-freeze-dried product"}, {"measurement": "Amount of compound clathrated", "setting": "[4]; objective compound: n-Valeic acid (short chain fatty acid)", "value": 48.3, "unit": "mg/g-freeze-dried product"}, {"measurement": "Amount of compound clathrated", "setting": "[4]; objective compound: o-Cresol (aromatic compound)", "value": 151.5, "unit": "mg/g-freeze-dried product"}, {"measurement": "Mortality", "setting": "mice; oral, highest possible dose", "value": "no mouse died"}, {"measurement": "LD50", "setting": "mice; orally administrated, though not so accurate", "value": "≥ 5", "unit": "g/kg-mouse weight"}, {"measurement": "Reducing power", "setting": "[5]", "value": "less than the measurable limit"}, {"measurement": "Digestion", "setting": "salivary α-amylase", "value": 0, "unit": "%"}, {"measurement": "Digestion", "setting": "pancreas α-amylase", "value": 0, "unit": "%"}, {"measurement": "Digestion", "setting": "small intestinal enzymes", "value": 0.2, "unit": "%"}]}
